Measurements as given in patent US11292801B2, “Calpain modulators and therapeutic uses thereof” (Blade Therapeutics, Inc., priority 2016, dated 2022).

Assays:
[1] = target: T1, Human Calpain 1/NS1 (Homo sapiens, UniProt P07384); assay: Biochemical inhibition of calpain 1, continuous fluorescence (FRET substrate) assay; details: mean, read-out: Human Calpain 1/NS1 IC50 (nM)_MEAN
T1 sequence (P07384 1-714): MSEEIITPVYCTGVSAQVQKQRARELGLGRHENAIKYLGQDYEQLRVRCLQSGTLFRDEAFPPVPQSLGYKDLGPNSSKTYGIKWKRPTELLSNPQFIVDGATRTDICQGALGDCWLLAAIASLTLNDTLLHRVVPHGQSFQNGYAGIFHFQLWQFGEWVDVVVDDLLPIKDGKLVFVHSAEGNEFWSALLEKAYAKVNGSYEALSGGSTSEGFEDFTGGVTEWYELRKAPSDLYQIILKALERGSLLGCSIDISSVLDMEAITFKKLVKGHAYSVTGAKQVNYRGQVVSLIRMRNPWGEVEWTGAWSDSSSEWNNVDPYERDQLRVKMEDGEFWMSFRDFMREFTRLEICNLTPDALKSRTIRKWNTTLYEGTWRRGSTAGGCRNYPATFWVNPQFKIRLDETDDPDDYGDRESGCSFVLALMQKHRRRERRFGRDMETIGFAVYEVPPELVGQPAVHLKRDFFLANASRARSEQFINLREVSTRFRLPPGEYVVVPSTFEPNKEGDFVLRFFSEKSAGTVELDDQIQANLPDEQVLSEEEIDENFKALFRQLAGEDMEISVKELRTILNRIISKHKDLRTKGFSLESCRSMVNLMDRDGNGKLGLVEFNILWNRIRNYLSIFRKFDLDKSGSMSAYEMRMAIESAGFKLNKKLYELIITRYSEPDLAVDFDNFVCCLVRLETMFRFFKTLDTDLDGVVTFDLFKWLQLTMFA
T1 sequence (P04632 1-268 partner): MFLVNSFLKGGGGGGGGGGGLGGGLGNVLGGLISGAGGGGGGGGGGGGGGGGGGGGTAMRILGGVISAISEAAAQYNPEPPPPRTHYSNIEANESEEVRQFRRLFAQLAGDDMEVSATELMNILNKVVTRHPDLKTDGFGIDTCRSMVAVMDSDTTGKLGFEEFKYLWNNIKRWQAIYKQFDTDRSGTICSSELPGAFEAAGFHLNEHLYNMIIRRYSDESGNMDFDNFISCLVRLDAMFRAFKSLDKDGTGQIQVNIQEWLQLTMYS
Outline: (§1)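 Continuous FRET assay with 5-FAM/QXL520 peptide substrate in 50 mM Tris pH ~7.5, 100 mM NaCl, 1 mM DTT. Enzyme preincubated with inhibitor at 25C; reaction started with substrate plus CaCl2, read at 490/520 nm for 10 min. Rates from slopes over 1-5 min, IC50 from 4-parameter logistic fit.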

[2] = target: T2, Human Calpain 2/NS1 (Homo sapiens, UniProt P17655); assay: Biochemical inhibition of calpain 2, continuous fluorescence (FRET substrate) assay; details: mean, read-out: Human Calpain 2/NS1 IC50 (nM)_MEAN
T2 sequence (P17655 1-700): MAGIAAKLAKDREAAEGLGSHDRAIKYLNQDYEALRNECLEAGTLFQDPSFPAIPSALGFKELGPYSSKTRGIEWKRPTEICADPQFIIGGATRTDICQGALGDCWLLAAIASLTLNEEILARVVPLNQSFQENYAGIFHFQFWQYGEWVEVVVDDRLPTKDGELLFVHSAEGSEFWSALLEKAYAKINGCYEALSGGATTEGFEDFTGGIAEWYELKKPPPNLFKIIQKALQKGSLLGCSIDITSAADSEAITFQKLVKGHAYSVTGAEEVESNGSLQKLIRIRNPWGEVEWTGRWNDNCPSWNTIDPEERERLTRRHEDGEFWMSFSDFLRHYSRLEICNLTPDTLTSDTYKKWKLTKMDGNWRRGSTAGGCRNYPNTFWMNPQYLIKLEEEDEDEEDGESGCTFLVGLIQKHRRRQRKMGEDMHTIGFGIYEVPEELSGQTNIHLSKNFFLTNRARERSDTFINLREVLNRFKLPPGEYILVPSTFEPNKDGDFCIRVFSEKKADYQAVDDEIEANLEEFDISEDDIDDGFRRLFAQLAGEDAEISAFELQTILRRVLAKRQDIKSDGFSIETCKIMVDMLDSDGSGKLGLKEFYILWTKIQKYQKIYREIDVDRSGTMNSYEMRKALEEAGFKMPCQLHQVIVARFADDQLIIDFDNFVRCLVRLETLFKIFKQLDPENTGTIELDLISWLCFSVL
T2 sequence (P04632 1-268 partner): T1 sequence (P04632 1-268 partner)
Outline: as §1

[3] = target: T3, Human Calpain 9/NS1 (Homo sapiens, UniProt O14815); assay: Biochemical inhibition of calpain 9, continuous fluorescence (FRET substrate) assay; details: mean, read-out: Human Calpain 9/NS1 IC50 (nM)_MEAN
T3 sequence (O14815 1-690): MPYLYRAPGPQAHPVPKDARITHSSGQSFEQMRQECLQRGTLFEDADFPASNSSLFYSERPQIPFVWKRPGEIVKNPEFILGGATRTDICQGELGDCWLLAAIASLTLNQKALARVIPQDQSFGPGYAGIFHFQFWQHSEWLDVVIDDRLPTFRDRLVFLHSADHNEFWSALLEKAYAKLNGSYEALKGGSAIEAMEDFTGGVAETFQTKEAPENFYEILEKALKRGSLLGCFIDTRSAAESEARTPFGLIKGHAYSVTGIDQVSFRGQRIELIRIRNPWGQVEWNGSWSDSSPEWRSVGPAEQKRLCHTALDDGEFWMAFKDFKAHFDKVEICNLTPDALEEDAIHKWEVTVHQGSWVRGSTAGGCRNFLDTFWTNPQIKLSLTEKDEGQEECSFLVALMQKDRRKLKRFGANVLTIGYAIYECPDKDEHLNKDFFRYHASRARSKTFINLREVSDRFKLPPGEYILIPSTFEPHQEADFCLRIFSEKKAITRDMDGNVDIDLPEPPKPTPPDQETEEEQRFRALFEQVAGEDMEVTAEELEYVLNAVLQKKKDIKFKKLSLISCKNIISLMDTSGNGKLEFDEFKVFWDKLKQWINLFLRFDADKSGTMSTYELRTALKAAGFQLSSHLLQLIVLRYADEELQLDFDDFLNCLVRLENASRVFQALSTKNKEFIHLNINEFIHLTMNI
T3 sequence (P04632 1-268 partner): T1 sequence (P04632 1-268 partner)
Outline: as §1

Row | SMILES | IC50 [1] [nM] | IC50 [2] [nM] | IC50 [3] [nM]
1 | O=C[C@@H]1Cc2ccc(cc2)CC=CCc2cccc(c2)-c2ccn(n2)-c2ncccc2C(=O)N1 [Compound 75, (2^2E,10S)-12-oxo-2^1H-11-aza-1(2,3)-pyridina-2(1,3)-pyrazola-3(1,3),8(1,4)-dibenzenacyclododecaphan-5-ene-10-carbaldehyde] | < 3000 | < 3000 | < 3000
2 | O=C(NCCN1CCOCC1)C(=O)C1CCCCOCCOCc2ccccc2C(=O)N1 (stereo not drawn) [Compound 80, N-(2-morpholinoethyl)-2-oxo-2-(12-oxo-1,3,4,6,7,8,9,10,11,12-decahydrobenzo[f][1,4]dioxa[9]azacyclotetradecin-10-yl)acetamide] | > 10000 | > 10000 | > 10000
3 | O=C[C@@H]1CC=CCCCOCc2ccccc2C(=O)N1 [Compound 41, (S)-11-Oxo-1,3,4,5,8,9,10,11-octahydrobenzo[c][1]oxa[6]azacyclotridecine-9-carbaldehyde] | > 10000 | < 3000 | < 3000
4 | O=C[C@@H]1CCCCOCCOCc2ccccc2C(=O)N1 [Compound 43, (S)-12-Oxo-1,3,4,6,7,8,9,10,11,12-decahydrobenzo[f][1,4]dioxa[9]aza-cyclotetradecine-10-carbaldehyde] | > 10000 | < 3000 | < 3000
5 | CCCCNC(=O)C(=O)[C@@H]1C/C=C\COCCOCc2ccccc2C(=O)N1 [Compound 59, (S,Z)—N-butyl-2-oxo-2-(12-oxo-1,3,4,6,9,10,11,12-octahydrobenzo[f][1,4]dioxa[9]azacyclotetradecin-10-yl)acetamide] | > 10000 | > 10000 | < 3000
6 | O=C[C@@H]1CC=CCCCCOc2ccccc2C(=O)N1 (mixture of isomers) [Compound 5, (S)-11-Oxo-2,3,4,5,8,9,10,11-octahydrobenzo[b][1]oxa[5]azacyclotridecine-9-carbaldehyde] | > 10000 | 3000 to 10000 | < 3000
7 | O=C[C@@H]1Cc2ccccc2CCCOCCCn2cncc2C(=O)N1 [Compound 22] | 3000 to 10000 | 3000 to 10000 | > 10000
8 | O=C(NC1CC1)C(=O)[C@@H]1Cc2ccc(cc2)OC/C=C/COc2cccc(c2)-c2ccn(n2)-c2ncccc2C(=O)N1 [Compound 70, N-cyclopropyl-2-oxo-2-((2^2E,6S,11E)-4-oxo-2^1H-9,14-dioxa-5-aza-3(2,3)-pyridina-2(3,1)-pyrazola-1(1,3),8(1,4)-dibenzenacyclotetradecaphan-11-en-6-yl)acetamide] | < 3000 | < 3000 | < 3000

Next, values leading:

Row | IC50 [1] [nM] | IC50 [2] [nM] | IC50 [3] [nM] | SMILES
9 | < 3000 | < 3000 | < 3000 | NC(=O)C(=O)[C@@H]1CCCCCOc2cccc(c2)-c2n[nH]cc2C(=O)N1 [Compound 140, (S)-2-oxo-2-(11-oxo-1H-3-oxa-10-aza-1(3,4)-pyrazola-2(1,3)-benzena-cycloundecaphane-9-yl)acetamide]
10 | > 10000 | > 10000 | 3000 to 10000 | O=C(NCc1ccc(Cl)cc1Cl)C(=O)C1CCCCOCCOCc2ccccc2C(=O)N1 (stereo not drawn) [Compound 96, N-(2,4-dichlorobenzyl)-2-oxo-2-(12-oxo-1,3,4,6,7,8,9,10,11,12-decahydrobenzo[f][1,4]dioxa[9]azacyclotetradecin-10-yl)acetamide]
11 | > 10000 | 3000 to 10000 | < 3000 | CS(=O)(=O)c1ccc(CNC(=O)C(=O)C2CCCCOCCOCc3ccccc3C(=O)N2)cc1 (stereo not drawn) [Compound 121, N-(4-(methylsulfonyl)benzyl)-2-oxo-2-(12-oxo-1,3,4,6,7,8,9,10,11,12-decahydrobenzo[f][1,4]dioxa[9]azacyclotetradecin-10-yl)acetamide]
12 | > 10000 | > 10000 | < 3000 | O=C(NCCc1cccc(Cl)c1)C(=O)C1CCCCOCCOCc2ccccc2C(=O)N1 (stereo not drawn) [Compound 89, N-(3-chlorophenethyl)-2-oxo-2-(12-oxo-1,3,4,6,7,8,9,10,11,12-decahydrobenzo[f][1,4]dioxa[9]azacyclotetradecin-10-yl)acetamide]
